Laboratory results taken from US6413948B1, “Pharmaceutical compositions and methods of effecting a neuronal activity in an animal using naaladase inhibitors” (Guilford Pharmaceuticals Inc., priority 1996, dated 2002).

Experiments:
mice = experiment: In vivo toxicity of NAALADase inhibitors in mice
Text: The mice were subsequently observed two times per day for 5 consecutive days.

[1] = test system: SHRSP rats which had sustained middle cerebral artery occlusion (MCAO); experiment: In vivo assay on cortical injury following MCAO in SHRSP rats
Text: A colony of SHRSP rats is bred at Johns Hopkins School of Medicine from three pairs of male and female rats obtained from the National Institutes of Health (Laboratory, Sciences Section, Veterinary Resources Program, National Center for Research Resources, Bethesda, Md.). All rats are kept in a virus-free environment and maintained on regular diet (NIH 31, Zeigler Bros, Inc.) with water ad libitum. All groups of rats are allowed to eat and drink water until the morning of the experiment.
Transient occlusion of the middle cerebral artery (MCA) is induced by advancing a 4-0 surgical nylon suture into the internal carotid artery (ICA) to block the origin of the MCA (Koizumi, 1986; Longa, 1989; Chen, 1992). The rats are anesthetized with 4% halothane, and maintained with 1.0% to 1.5% halothane in air enriched oxygen using a face mask. Rectal temperature is maintained at 37.0±0.5° C. throughout the surgical procedure using a heating lamp. The right femoral artery is cannulated for measuring blood gases (pH, oxygen tension [PO2], carbon dioxide tension [PCO2]) before and during ischemia, for monitoring blood pressure during the surgery. The right common carotid artery (CCA) is exposed through a midline incision; a self-retraining retractor is positioned between the digastric and mastoid muscles, and the omohyoid muscle is divided. The right external carotid artery (ECA) is dissected and ligated. The occipital artery branch of the ECA is then isolated and coagulated. Next, the right internal carotid artery (ICA) is isolated until the pterygopalatine artery is exposed, and carefully separated from the adjacent vagus nerve. The pterygopalatine artery is ligated with 4-0 silk suture close to its origin.
After the CCA is ligated with 4-0 silk suture, a 4-0 silk suture to prevent bleeding from a puncture site, through which a 2.5 cm length of 4-0 monofilament nylon suture (Ethilon), its tip rounded by heating near a electric cautery, is introduced into the ICA lumen. A 6-0 silk suture is tightened around the intraluminal nylon suture at the bifurcation to prevent bleeding, and the stretched sutures at the CCA and the ICA are released. The nylon suture is then gently advanced as far as 20 mm.
Anesthesia is terminated after 10 minutes of MCA occlusion in both groups, and the rats were awakened 5 minutes thereafter. After 2 hours of ischemia, anesthesia is reanesthetized, and reperfusion is performed by withdrawing the intraluminal nylon suture until the distal tip became visible at the origin of the ICA.
Arterial pH and PaCO2, and partial pressure of oxygen (PaO2) are measured with a self-calibrating Radiometer electrode system (ABL 3; Copenhagen, Denmark). Hemoglobin and arterial oxygen content are measured with a hemoximeter (Radiometer, Model OSM3; Copenhagen, Denmark). Blood glucose is measured with a glucose analyzer (model 2300A, Yellow Springs Instruments, Yellow Springs, Ohio).
Each group is exposed to 2 hours of right MCA occlusion and 22 hours of reperfusion. All variables but the rectal temperature are measured at baseline, at 15 minutes and 45 minutes of right MCA occlusion. The rectal temperature is measured at baseline, at 0 and 15 min of MCA occlusion, and at 0 and 22 hours of reperfusion.

[2] = test system: stroke-induced rise in brain glutamate levels; experiment: In vivo assay on stroke-induced rise in brain glutamate levels (microdialysis); parameters: species or system Sprague Dawley rats; conditions: rat
Text: Male Sprague Dawley rats (270-330 g, n=5-6 per group) were implanted with concentric microdialysis probes similar to previously described procedures (Britton et al., J. Neurochem., Vol. 67, pp. 324-329 (1996)). In brief, under halothane anaesthesia, probes (constructed in-house using Cuprophane capillary membrane; 10K mw cut off; 2 mm dialyzing length) were implanted into the frontal cortex (AP=+3.5; ML=3; DIV=3), caudate nucleus (AP=0; ML=3; DV=6.6), and parietal cortex (AP=−2; ML=5; DV=3) (coordinates in mm relative to bregma and dura, respectively), regions believed to represent core and penumbral areas of ischemia-induced injury. Glutamate levels in dialysate were determined using precolumn o-phthaldialdehyde derivatization, followed by HPLC with fluorometric detection.
Following a 60 minute stabilization period, dialysis samples were collected every 20 minutes. After collecting 3 baseline samples, the rats were anaesthetized with halothane and subjected to temporary ischemia using the filament method of MCAO (Britton et al., Life Sciences, Vol. 60, No. 20, pp. 1729-1740 (1997)). In brief, the right external carotid artery (ECA) was exposed and its branches coagulated. A 3-0 monofilament nylon suture was introduced into the internal carotid artery via an arteriotomy in the ECA and advanced until it lodged in the proximal region of the anterior cerebral artery, thus occluding the origin of the MCA. The endovascular suture was retracted to allow reperfusion 2 hours after occlusion.
Body temperature was maintained normothermic throughout stroke surgery and reperfusion procedures. […] Dialysis samples were collected every 20 minutes from unanesthetized rats.

[3] = test system: spinal cord organotypic cultures; experiment: Spinal cord culture model of ALS (THA toxicity, ChAT activity); format: cell-based, rats
Method: Organotypic cultures were prepared from lumbar spinal cord of 8 day old rats, as described by Rothstein et al., J. Neurochem., Vol. 65, No. 2 (1995), and Rothstein et al., Proc. Natl. Acad. Sci. USA, Vol. 90, pp. 6591-6595 (July 1993). In brief, lumbar spinal cords were removed and sliced into 300 […] sections, and five slices were placed on Millipore CM semipermeable 30-mm-diameter membrane inserts. The inserts were placed on 1 ml of culture medium in 35-mm-diameter culture wells. Culture medium consisted of 50% minimal essential medium and phosphate-free HEPES (25 mM), 25% heat-inactivated horse serum, and 25% Hanks' balanced salt solution (GIBCO) supplemented with D-glucose (25.6 mg/ml) and glutamine (2 mM), at a final pH of 7.2. Antibiotic and antifungal agents were not used. Cultures were incubated at 37° C. in 5% CO2 containing humidified environment (Forma Scientific). Culture medium, along with any added pharmacological agents, was changed twice weekly.
Drugs were incubated for an additional 13 to 20 days with the 100 μM THA. At the end of this period, cultures were collected assayed for ChAT activity as described below.
To determine choline acetyltransferase (ChAT) activity, the spinal cord tissues in each dish (five slices) were pooled and frozen (−75° C.) until assay. ChAT activity was measured radiometrically by described methods using [^3H] acetyl-CoA (Amersham; Fonnum, 1975). Protein content of tissue homogenate was determined by a Coomassi Protein Assay kit (Pierce, Rockford, Ill.).

[4] = 10 mg/kg followed by 2 mg/kg/hr for 1 hour
[5] = 100 mg/kg followed by 20 mg/kg/hr for one hour

## O=C(O)CCC(CP(=O)(O)O)C(=O)O (stereo not shown) [2-(phosphonomethyl)pentanedioic acid]
mice; 1 to 500 mg/kg, observed 5 days
  toxicity to mice (in words): non-toxic to mice
mice; dose 1 mg/kg
  Survival Rate After 5 days (%): 100%
mice; dose 5 mg/kg
  Survival Rate After 5 days (%): 100%
mice; dose 10 mg/kg
  Survival Rate After 5 days (%): 100%
mice; dose 30 mg/kg
  Survival Rate After 5 days (%): 100%
mice; dose 100 mg/kg
  Survival Rate After 5 days (%): 100%
mice; dose 300 mg/kg
  Survival Rate After 5 days (%): 100%
mice; dose 500 mg/kg
  Survival Rate After 5 days (%): 66.7%
[1]; [4]
  Cortical Injury Volume (% injury) ± S.E.M.: 29.14 ± 7.68 (n = 10) % injury
  Cortical Injury Volume (mm^3) ± S.E.M.: 135.00 ± 32.18 (n = 10) mm^3
  Cortical Protection (% protection): 27%
[1]; [5]
  Cortical Injury Volume (% injury) ± S.E.M.: 13.98 ± 6.64 (n = 10) % injury
  Cortical Injury Volume (mm^3) ± S.E.M.: 65.23 ± 32.18 (n = 10) mm^3
  Cortical Protection (% protection): 65%
[2]
  concurrent glutamate changes in the parietal cortex: completely prevented
  glutamate in the frontal cortex: no subsequent difference
  stroke-induced extracellular glutamate increases in the striatum: significantly attenuated
[3]; Table XII, THA (100 μM) and 1 nM, 14 days
  ChAT Activity (% of Control): −23.9 ± 18.6 % of Control
[3]; Table XII, THA (100 μM) and 10 nM, 14 days
  ChAT Activity (% of Control): 23.1 ± 12.5 % of Control
[3]; Table XII, THA (100 μM) and 100 nM, 14 days
  ChAT Activity (% of Control): 87.5 ± 21.7 % of Control
[3]; Table XII, THA (100 μM) and 1 μM, 14 days
  ChAT Activity (% of Control): 187.7 ± 32.8 % of Control
[3]; Table XII, THA (100 μM) and 10 μM, 14 days
  ChAT Activity (% of Control): 128.7 ± 17.2 % of Control
[3]; co-incubation with THA, 100 nM-10 μM
  protection of the cultures from THA toxicity (in words): significantly protected
[3]; compound alone
  ChAT Activity (% of Control): 108 ± 18.4 % of Control
[3]; compound and THA
  ChAT Activity (% of Control): 121 + 18.8 % of Control
